Assay results taken from patent publication US10265303B2, “Hyperphenylalaninemia and treatments thereof” (BERGEN TEKNOLOGIOVERFØRING AS, priority 2015, dated 2019).

Experiments:
R68S-PAH = R68S-PAH (Homo sapiens, UniProt P00439, R68S); conditions: 200 μM, 24 h, 1% DMSO
Procedure: A similar assay was used to measure PAH activity in cells lysates using 1 mM L-Phe and 200 μM BH4 with 10 min reactions and about 20-90 μg of total protein. Free amino acids and contaminants of low molecular weight were previously removed from the extracts using Zebra Desalt Spin columns (Pierce Biotechnology).
For transient expression of WT and mutant PAH, HEK293 EBNA (Epstein-Barr virus) cells, with low endogenous PAH expression, were grown as above. Cells were grown for 19 h, when they were transfected transiently transfected with […] of pcDNA3-PAH vector (WT or mutant PAH constructs R261Q, R252W, I65T and R68S) using the Lipofectamine system (Life Technologies™) as described by the manufacturer. Compound 53, with and without BH2 (200 μM) was added after 5 h of transfection at 200 μM concentration in 1% DMSO, and further incubated for 24 h, at which time the cells were harvested and stored at −80° C. In all cases a parallel negative control with only 1% DMSO was included. Cell lysates were prepared as indicated above.
Western blot analyses were performed on either cell extracts from permanently expressing or transiently transfected HEK293 cell lysates after SDS-PAGE (10% acrylamide) with 5-10 μg total protein in each lane. […] Neomycin phosphotransferase II was used as a marker of the plasmid transfection efficiency, and GAPDH was used as loading controls. […]

[1] = target: tyrosine hydroxylase (TH) (Homo sapiens, UniProt P07101); conditions: 68.9 μM, respect to 2% DMSO controls
Sequence of tyrosine hydroxylase (TH) (P07101 whole entry): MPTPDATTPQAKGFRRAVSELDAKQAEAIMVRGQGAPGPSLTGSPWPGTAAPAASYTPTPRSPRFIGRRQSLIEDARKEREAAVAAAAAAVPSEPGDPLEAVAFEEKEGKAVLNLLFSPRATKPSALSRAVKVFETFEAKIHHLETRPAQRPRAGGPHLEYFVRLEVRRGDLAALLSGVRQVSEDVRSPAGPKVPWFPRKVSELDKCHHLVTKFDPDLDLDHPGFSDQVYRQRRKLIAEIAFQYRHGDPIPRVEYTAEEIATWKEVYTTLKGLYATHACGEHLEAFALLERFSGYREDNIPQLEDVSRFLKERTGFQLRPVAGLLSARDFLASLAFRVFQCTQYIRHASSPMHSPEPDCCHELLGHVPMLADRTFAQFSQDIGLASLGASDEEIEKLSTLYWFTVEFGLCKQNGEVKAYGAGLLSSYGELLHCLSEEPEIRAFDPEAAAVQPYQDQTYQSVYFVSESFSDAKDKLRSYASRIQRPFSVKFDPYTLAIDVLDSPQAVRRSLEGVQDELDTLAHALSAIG

human wild-type PAH = target: T1, human wild-type PAH (Homo sapiens, UniProt P00439); assay: PAH activity in lysates of HEK293 cells permanently expressing human wild-type PAH; type: cell-based
T1 construct: expressed in transfected cells
T1 sequence (P00439 1-452): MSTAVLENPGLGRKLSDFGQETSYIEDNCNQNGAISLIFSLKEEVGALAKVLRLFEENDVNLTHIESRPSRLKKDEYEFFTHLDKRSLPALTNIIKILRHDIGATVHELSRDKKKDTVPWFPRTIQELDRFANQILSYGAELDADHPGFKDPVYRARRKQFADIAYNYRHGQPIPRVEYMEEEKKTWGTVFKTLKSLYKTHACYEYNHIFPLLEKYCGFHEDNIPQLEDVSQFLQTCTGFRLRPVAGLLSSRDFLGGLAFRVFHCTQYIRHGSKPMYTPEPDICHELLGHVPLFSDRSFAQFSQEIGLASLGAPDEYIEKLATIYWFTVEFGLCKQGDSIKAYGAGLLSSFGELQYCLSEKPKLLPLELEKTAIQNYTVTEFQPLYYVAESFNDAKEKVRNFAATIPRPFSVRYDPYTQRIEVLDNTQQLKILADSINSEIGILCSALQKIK
Procedure: (§1) Human embryonic kidney cells (HEK293; Life Technologies™) permanently expressing WT-hPAH, prepared with the Flp-In system (Life Technologies™) were kindly provided by Per Knappskog, Haukeland University Hospital. About 1 million cells were grown in DMEM medium containing 4.5 g/l glucose, 10% (v/v) fetal calf serum, 0.25 mg/ml gentamycine, 2 mM L-glutamine and 50 μg/ml hygromycin B, and after 24 h medium was changed and the test compounds were added at a concentration of 0.02 mg/ml (1% DMSO). Eight hours later, the cells were harvested, and the pellets frozen in dry ice and stored at −80° C. […] To prepare the cell extracts, the frozen cell pellets were thawed in TBS (+protease inhibitor) buffer and cells were homogenized with 0.1% TX-100, incubated 15 minutes at 4° C. and extracts were clarified by centrifugation 20000 g for 15 min at 4° C. Protein concentrations were normalized using a Direct Detect Spectrometer (Merck Millipore).
The 7 selected compounds as well as the first generation pharmacological chaperones (Compounds III and IV) were further analyzed in the presence and absence of BH2 (200 μM), added as precursor of BH4, to account for additive effects. […]
as §1, with “and the compounds were” for “and the test compounds were”, “concentration of 0.04 mg/ml (1%” for “concentration of 0.02 mg/ml (1%”, “for 15 minutes at 4°” for “for 15 min at 4°”

Sequence of R68S-PAH (P00439 whole entry R68S): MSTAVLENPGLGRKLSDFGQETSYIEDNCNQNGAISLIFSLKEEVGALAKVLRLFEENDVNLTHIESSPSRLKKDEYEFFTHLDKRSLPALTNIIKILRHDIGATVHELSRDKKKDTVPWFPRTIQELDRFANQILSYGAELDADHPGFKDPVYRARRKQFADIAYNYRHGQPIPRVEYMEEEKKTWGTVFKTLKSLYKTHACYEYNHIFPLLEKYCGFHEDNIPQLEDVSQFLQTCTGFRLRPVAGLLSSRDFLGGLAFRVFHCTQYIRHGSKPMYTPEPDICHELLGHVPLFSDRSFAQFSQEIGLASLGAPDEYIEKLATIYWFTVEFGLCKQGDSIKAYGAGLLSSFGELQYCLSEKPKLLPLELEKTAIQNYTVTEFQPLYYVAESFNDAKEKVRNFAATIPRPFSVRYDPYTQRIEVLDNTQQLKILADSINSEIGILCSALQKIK

In the case of `COc1cc(Cc2cnc(N)nc2N)cc(OC)c1OC` [c53, trimethoprim], the “PAH activity, mutant R68S” value (R68S-PAH) is reported as “An effect”, the “effect on TH activity” value [1] is reported as “did not have large effect” and the “effect on PAH activity (FIG. 1A)” value (human wild-type PAH; 0.04 mg/ml (average 116.7 μM), 1% DMSO, 8 h) is reported as “very large stimulating effect”. For the same compound, the “PAH activity-cells (%)” value (human wild-type PAH; 0.04 mg/ml compound, 1% DMSO, 8 h, Table 3) was 148 ± 16%, the “increase of hPAH activity with respect to the control (FIG. 6)” value (human wild-type PAH; average compound concentration 144.9 μM, 1% DMSO, 8 h) was “around 40%” and the “effect on PAH activity together with BH2 (FIG. 1B)” value (human wild-type PAH; compound average 116.7 μM plus BH2 200 μM) was “additive”.
